Assay results taken from patent US20030133958A1, “External agent for the skin and whitening agent” (priority 2000, published 2003).

Key:
B-16 melanoma cells [1] = experiment: Test for evaluating melanogenesis-inhibitory function (cell-whitening degree) in cell culture systems using B-16 melanoma cells; format: cell-based; design: key to Whitening degree: ++: The whitening degree is higher than that observed when adding 450 μg/mL of vitamin C-magnesium phosphate.; +: The whitening degree is almost identical to that observed when adding 450 μ g/mL of vitamin C-magnesium phosphate.; ±: The whitening degree is not higher than that observed when adding 450 μg/mL of vitamin C-magnesium phosphate, but higher than that of the control.; −: The whitening degree is almost identical to that observed for the control; settings: for Whitening degree / added concentration at which the whitening effect is almost identical to that of the positive control: B-16 melanoma cells; for whitening effect, times that observed for vitamin C-magnesium phosphate: from Table 1; for whitening effect, times that observed for vitamin C-magnesium phosphate / added concentration at which the whitening effect is almost identical to that of the positive control: positive control vitamin C-magnesium phosphate 450 ppm
From the text: (§1) The B-16 melanoma cell is one having an ability of producing melanin and therefore, the cells naturally grown by cell culture blacken. If a substance capable of inhibiting melanogenesis is present in the cell growth system during the cell growth, the blackening of the cells is inhibited and they relatively whiten. Accordingly, the whitening effect of each candidate substance can be evaluated on the basis of the degree of whiteness observed when adding a test sample relative to the degree of blackness observed for a control. […] To evaluate this cytotoxicity, the cell survival rate observed when adding a test sample to the system is compared with that observed for the control. Thus, the substantial whitening effect can be evaluated on the basis of the results of these cell-whitening test and cytotoxicity test.
An example of such a method for evaluating the melanogenesis-inhibitory function in a cell culture system using B-16 melanoma cells comprises, for instance, the steps of dispensing 2 ml/well of a culture medium to each well of a 6-well plate, inoculating a desired amount of melanoma cells to the medium, cultivating the cells by allowing the medium to stand at 37° C. and a carbon dioxide concentration of 5%. On the following day, a solution of a test sample is added and mixed with the culture medium to a predetermined concentration and the cell cultivation is continued. After 5 days from the initiation of the cultivation, the culture medium is replaced with fresh one and the solution of the test sample is again added thereto. On the next day, the medium is removed to thus recover the cells, followed by washing them with PBS (phosphate-buffered saline) and the determination of the degree of whiteness to thus evaluate the whitening effect of the test sample. In this connection, the melanogenesis-inhibitory function is evaluated by comparing the results thus obtained with the degree of whiteness observed when the same procedures are repeated using the vitamin C-magnesium phosphate as a known whitening agent instead of the test sample solution (positive control) and that observed when the procedures are repeated without addition of any test sample (control).
A culture medium was dispensed to wells of a 6-well plate (2 mL/well each), followed by inoculation of a desired amount of B-16 melanoma cells on each well, allowing the wells to stand at 37° C. and 5% CO2 to thus cultivate the cells. On the day subsequent thereto, a sample solution prepared was added to the wells with stirring and the cultivation was continued. The culture medium was replaced with fresh one on the 5th day from the initiation of the cultivation and the sample solution was again added to the wells. On the next day, the culture medium was removed to recover the cells, followed by washing them with PBS (phosphate buffered physiological saline) and then evaluation of the cell-whitening degree In this respect, the melanogenesis-inhibitory function was evaluated by comparing the cell-whitening degree thus obtained with that observed when the same procedures used above were repeated except that vitamin C-magnesium phosphate as a known whitening agent (positive control) was substituted for the sample solution used above and that observed when the same procedures used above were repeated except that any sample was not added (control), according to the following evaluation criteria.
The evaluation criteria for the cell-whitening degree are as follows: […]

B-16 melanoma cells [2] = experiment: Cell-survival rate (cytotoxicity) in B-16 melanoma cell culture; format: cell-based
From the text: as §1
The cell-survival rate at each added sample concentration can be determined according to the following formula
Cell-Survival Rate (%)=(A/B)×100
Wherein A represents the viable cell count observed for the system to which a sample is added and B represents the number of cells observed for the control system.

[3] = concentration 2 ppm, B-16 melanoma cells
[4] = concentration 4 ppm, B-16 melanoma cells
[5] = concentration 6 ppm, B-16 melanoma cells
[6] = concentration 8 ppm, B-16 melanoma cells
[7] = concentration 10 ppm, B-16 melanoma cells
[8] = concentration 15 ppm, B-16 melanoma cells
[9] = concentration 25 ppm, B-16 melanoma cells
[10] = concentration 50 ppm, B-16 melanoma cells

| oil-solubility, in words (Solubility (oil / water)) | Compound | Whitening degree (B-16 melanoma cells [1]; concentration 10 ppm) | Whitening degree (B-16 melanoma cells [1]; concentration 15 ppm) | Whitening degree (B-16 melanoma cells [1]; concentration 25 ppm) | Whitening degree (B-16 melanoma cells [1]; concentration 50 ppm) | Cell-Survival Rate (B-16 melanoma cells [2]; mouse, 10 ppm) [%] | Cell-Survival Rate (B-16 melanoma cells [2]; mouse, 15 ppm) [%] | Cell-Survival Rate (B-16 melanoma cells [2]; mouse, 25 ppm) [%] | Cell-Survival Rate (B-16 melanoma cells [2]; mouse, 50 ppm) [%] | Cell-Survival Rate (B-16 melanoma cells [2]; mouse, 100 ppm) [%] | Cell-Survival Rate (B-16 melanoma cells [2]; mouse, 200 ppm) [%] | Whitening degree (B-16 melanoma cells [1]; concentration 2 ppm) | Whitening degree (B-16 melanoma cells [1]; concentration 4 ppm) | Whitening degree (B-16 melanoma cells [1]; concentration 6 ppm) | Whitening degree (B-16 melanoma cells [1]; concentration 8 ppm) | Cell-Survival Rate (B-16 melanoma cells [2]; [3]) [%] | Cell-Survival Rate (B-16 melanoma cells [2]; [4]) [%] | Cell-Survival Rate (B-16 melanoma cells [2]; [5]) [%] | Cell-Survival Rate (B-16 melanoma cells [2]; [6]) [%] | Cell-Survival Rate (B-16 melanoma cells [2]; [7]) [%] | further results |
| --- | --- | --- | --- | --- | --- | --- | --- | --- | --- | --- | --- | --- | --- | --- | --- | --- | --- | --- | --- | --- | --- |
|  | OC[C@H]1O[C@@H](Oc2ccc(O)cc2)[C@H](O)[C@@H](O)[C@@H]1O [Arbutin, reference compound] | − | − | − | ± | 100 | 100 | 100 | 86 | 69 | 56 |  |  |  |  |  |  |  |  |  | Whitening degree (B-16 melanoma cells [1]; concentration 100 ppm): ±; Whitening degree (B-16 melanoma cells [1]; concentration 200 ppm): +; Whitening degree (B-16 melanoma cells [1]; concentration 300 ppm): ++; Whitening degree (B-16 melanoma cells [1]; concentration 400 ppm): ++; Cell-Survival Rate (B-16 melanoma cells [2]; mouse, 300 ppm): 41%; Cell-Survival Rate (B-16 melanoma cells [2]; mouse, 450 ppm): 16% |
| oil-soluble | C=C(C)[C@@H]1CC[C@]2(C(=O)O)CC[C@]3(C)[C@H](CC[C@@H]4[C@@]5(C)CC[C@H](O)C(C)(C)[C@@H]5CC[C@]43C)[C@@H]12 [Betulinic acid, betulinic acid] | + | + | + | + | 99 | 83 | 76 | 69 | 60 | 51 | − | ± | ± | ± |  |  |  |  |  | cell-survival rate at the added concentration showing a whitening degree almost identical to vitamin C-magnesium phosphate at 450 ppm (B-16 melanoma cells [2]; mouse): 99-100%; Cell-Survival Rate (B-16 melanoma cells [2]; mouse, 2 ppm): 100%; Cell-Survival Rate (B-16 melanoma cells [2]; mouse, 4 ppm): 100%; Cell-Survival Rate (B-16 melanoma cells [2]; mouse, 6 ppm): 100%; Cell-Survival Rate (B-16 melanoma cells [2]; mouse, 8 ppm): 100% |
|  | CC[Si](CC)(CC)OC(=O)[C@]12CCC(C)(C)C[C@H]1C1=CC[C@@H]3[C@@]4(C)C[C@@H](O[Si](CC)(CC)CC)[C@H](O[Si](CC)(CC)CC)C(C)(C)[C@@H]4CC[C@@]3(C)[C@]1(C)CC2 [Compound of Synthesis 3, Triethylsilyl Ester of 2,3-O-Di-Triethylsilyl-Maslinic Acid] | + | + | + | + |  |  |  |  |  |  | − | ± | ± | + | 100 | 100 | 100 | 100 | 100 | Cell-Survival Rate (B-16 melanoma cells [2]; [8]): 100%; Cell-Survival Rate (B-16 melanoma cells [2]; [9]): 100%; Cell-Survival Rate (B-16 melanoma cells [2]; [10]): 94% |
| oil-soluble | CC1(C)CC[C@]2(CO)CC[C@]3(C)C(=CC[C@@H]4[C@@]5(C)CC[C@H](O)C(C)(C)[C@@H]5CC[C@]43C)[C@@H]2C1 [Erythrodiol, erythrodiol] | ± | ± | + | + | 100 | 100 | 100 | 97 | 85 | 72 | ± | ± | ± | ± |  |  |  |  |  | cell-survival rate at the added concentration showing a whitening degree almost identical to vitamin C-magnesium phosphate at 450 ppm (B-16 melanoma cells [2]; mouse): 99-100%; Cell-Survival Rate (B-16 melanoma cells [2]; mouse, 2 ppm): 100%; Cell-Survival Rate (B-16 melanoma cells [2]; mouse, 4 ppm): 100%; Cell-Survival Rate (B-16 melanoma cells [2]; mouse, 6 ppm): 100%; Cell-Survival Rate (B-16 melanoma cells [2]; mouse, 8 ppm): 100% |
|  | O=c1cc(CO)occ1O [Kojic Acid, reference compound] | − | − | − | ± | 100 | 100 | 100 | 100 | 100 | 93 |  |  |  |  |  |  |  |  |  | Whitening degree (B-16 melanoma cells [1]; concentration 100 ppm): ±; Whitening degree (B-16 melanoma cells [1]; concentration 200 ppm): +; Whitening degree (B-16 melanoma cells [1]; concentration 300 ppm): ++; Whitening degree (B-16 melanoma cells [1]; concentration 400 ppm): ++; Cell-Survival Rate (B-16 melanoma cells [2]; mouse, 300 ppm): 80%; Cell-Survival Rate (B-16 melanoma cells [2]; mouse, 450 ppm): 66% |
|  | CC1(C)CC[C@]2(C(=O)O)CC[C@]3(C)C(=CC[C@@H]4[C@@]5(C)C[C@@H](O)[C@H](O)C(C)(C)[C@@H]5CC[C@]43C)[C@@H]2C1 [Purified maslinic acid 1, maslinic acid] | ++ |  |  |  |  |  |  |  |  |  | ± | + | ++ | ++ | 100 | 100 | 100 | 79 | 57 | whitening effect, times that observed for vitamin C-magnesium phosphate (B-16 melanoma cells [1]): about 110 times; added concentration at which the whitening effect is almost identical to that of the positive control (B-16 melanoma cells [1]): 4 ppm |
|  | CC1(C)CC[C@]2(C(=O)O)CC[C@]3(C)C(=CC[C@@H]4[C@@]5(C)C[C@@H](O)[C@H](O)C(C)(C)[C@@H]5CC[C@]43C)[C@@H]2C1 [Purified maslinic acid 2, maslinic acid] | ++ |  |  |  |  |  |  |  |  |  | ± | + | ++ | ++ | 100 | 100 | 100 | 88 | 69 | whitening effect, times that observed for vitamin C-magnesium phosphate (B-16 melanoma cells [1]): about 110 times; added concentration at which the whitening effect is almost identical to that of the positive control (B-16 melanoma cells [1]): 4 ppm |
| oil-soluble | C[C@H]1[C@H](C)CC[C@]2(CO)CC[C@]3(C)C(=CC[C@@H]4[C@@]5(C)CC[C@H](O)C(C)(C)[C@@H]5CC[C@]43C)[C@H]12 [Uvaol, uvaol] | + | + | + | + | 100 | 100 | 90 | 82 | 71 | 61 | − | − | − | ± |  |  |  |  |  | cell-survival rate at the added concentration showing a whitening degree almost identical to vitamin C-magnesium phosphate at 450 ppm (B-16 melanoma cells [2]; mouse): 99-100%; Cell-Survival Rate (B-16 melanoma cells [2]; mouse, 2 ppm): 100%; Cell-Survival Rate (B-16 melanoma cells [2]; mouse, 4 ppm): 100%; Cell-Survival Rate (B-16 melanoma cells [2]; mouse, 6 ppm): 100%; Cell-Survival Rate (B-16 melanoma cells [2]; mouse, 8 ppm): 100% |

| Compound | oil-solubility, in words (Solubility (oil / water)) | Whitening degree (B-16 melanoma cells [1]; concentration 10 ppm) | Whitening degree (B-16 melanoma cells [1]; concentration 15 ppm) | Whitening degree (B-16 melanoma cells [1]; concentration 25 ppm) | Whitening degree (B-16 melanoma cells [1]; concentration 50 ppm) | Cell-Survival Rate (B-16 melanoma cells [2]; mouse, 10 ppm) [%] | Cell-Survival Rate (B-16 melanoma cells [2]; mouse, 15 ppm) [%] | Cell-Survival Rate (B-16 melanoma cells [2]; mouse, 25 ppm) [%] | Cell-Survival Rate (B-16 melanoma cells [2]; mouse, 50 ppm) [%] | Cell-Survival Rate (B-16 melanoma cells [2]; mouse, 100 ppm) [%] | Cell-Survival Rate (B-16 melanoma cells [2]; mouse, 200 ppm) [%] | Whitening degree (B-16 melanoma cells [1]; concentration 2 ppm) | Whitening degree (B-16 melanoma cells [1]; concentration 4 ppm) | Whitening degree (B-16 melanoma cells [1]; concentration 6 ppm) | Whitening degree (B-16 melanoma cells [1]; concentration 8 ppm) | Cell-Survival Rate (B-16 melanoma cells [2]; [3]) [%] | Cell-Survival Rate (B-16 melanoma cells [2]; [4]) [%] | Cell-Survival Rate (B-16 melanoma cells [2]; [5]) [%] | Cell-Survival Rate (B-16 melanoma cells [2]; [6]) [%] | Cell-Survival Rate (B-16 melanoma cells [2]; [7]) [%] | further results |
| --- | --- | --- | --- | --- | --- | --- | --- | --- | --- | --- | --- | --- | --- | --- | --- | --- | --- | --- | --- | --- | --- |
| C=C(C)[C@@H]1CC[C@]2(CO)CC[C@]3(C)[C@H](CC[C@@H]4[C@@]5(C)CC[C@H](O)C(C)(C)[C@@H]5CC[C@]43C)[C@@H]12 [Betulin, betulin] | oil-soluble | ± | + | + | + |  |  |  |  |  |  | − | − | ± | ± | 100 | 100 | 100 | 100 | 100 | Cell-Survival Rate (B-16 melanoma cells [2]; [8]): 100%; Cell-Survival Rate (B-16 melanoma cells [2]; [9]): 100%; Cell-Survival Rate (B-16 melanoma cells [2]; [10]): 100% |
| CC1(C)CC[C@]2(C(=O)O)CC[C@]3(C)C(=CC[C@@H]4[C@@]5(C)C[C@@H](O)[C@H](O)C(C)(C)[C@@H]5CC[C@]43C)[C@@H]2C1 [maslinic acid] | oil-soluble |  |  |  |  |  |  |  |  |  |  |  |  |  |  |  |  |  |  |  | solubility in water, in words (Solubility (oil / water)): hardly soluble in water |
